Laboratory results reported in US10894036B2, “Use of marizomib for the treatment of central nervous system (CNS) cancers” (Celgene International II Sàrl, priority 2016, dated 2021).

Assay: Phase 1/2 MRZ + BEV and MRZ monotherapy in recurrent G4 MG: adverse events, DLT
[1] = MRZ+BEV, 36 pts, as of 12 Sep. 2016

Protocol: The clinical trial was a Phase 1, dose-escalation (3+3 design) followed by dose-expansion at recommended Phase 2 Dose (RP2D).
The drugs were infused on 28-Day Cycles. Tumor response is assessed every other cycle by RANO criteria.
The safety data will be presented in individual listings and summary tables, including frequency tables for adverse events and frequency and shift tables for laboratory variables. The safety population will be all subjects who received at least one dose of either study drug in Phase 1 or MRZ in Phase 2.

## C[C@@]12OC(=O)[C@]1([C@@H](O)[C@@H]1C=CCCC1)NC(=O)[C@@H]2CCCl [marizomib]
MRZ + BEV, N = 36
  confusional state, marizomib-related adverse events ≥3, patients: 3
  headache, marizomib-related adverse events ≥3, patients: 3
  patients with marizomib-related serious adverse events: Four
MRZ+BEV, 12 Sep. 2016
  Anaemia: # pts, related to MRZ: 6
  Anxiety: # pts, related to MRZ: 0
  Aphasia: # pts, related to MRZ: 0
  Appendicitis Perforated: # pts, related to MRZ: 0
  Asthenia: # pts, related to MRZ: 0
  Ataxia: # pts, related to MRZ: 6
  Confusional State: # pts, related to MRZ: 6
  Constipation: # pts, related to MRZ: 4
  Convulsion: # pts, related to MRZ: 0
  Delusion: # pts, related to MRZ: 1
  Depressed Level of Consciousness: # pts, related to MRZ: 0
  Diarrhoea: # pts, related to MRZ: 9
  Dizziness: # pts, related to MRZ: 8
  Dysarthria: # pts, related to MRZ: 1
  Dysphagia: # pts, related to MRZ: 0
  Dysphonia: # pts, related to MRZ: 0
  Dyspnoea: # pts, related to MRZ: 0
  Ear Infection: # pts, related to MRZ: 0
  Embolism: # pts, related to MRZ: 0
  Epistaxis: # pts, related to MRZ: 0
  Falls: # pts, related to MRZ: 3
  Fatigue: # pts, related to MRZ: 1
  Fracture of Femur: # pts, related to MRZ: 0
  Haemorrhage Intracranial: # pts, related to MRZ: 0
  Hallucination: # pts, related to MRZ: 11
  Headache: # pts, related to MRZ: 5
  Hemiparesis: # pts, related to MRZ: 0
  Hyperglycemia: # pts, related to MRZ: 0
  Hypertension: # pts, related to MRZ: 0
  Hypokalemia: # pts, related to MRZ: 0
  Hyponatremia: # pts, related to MRZ: 1
  Hypotension: # pts, related to MRZ: 0
  Infusion Site Pain: # pts, related to MRZ: 6
  Insomnia: # pts, related to MRZ: 1
  Lymphocyte Count Decreased: # pts, related to MRZ: 0
  Muscular Weakness: # pts, related to MRZ: 2
  Nausea: # pts, related to MRZ: 19
  Optic Nerve Disorder: # pts, related to MRZ: 0
  Pyramidal Tract Syndrome: # pts, related to MRZ: 0
  Tumor Metastasis: # pts, related to MRZ: 0
  Vision Blurred: # pts, related to MRZ: 3
  Vomiting: # pts, related to MRZ: 12
MRZ+BEV, 17 May 2016
  Anaemia: # events related to MRZ: 9
  Aphasia: # events related to MRZ: 0
  Appendicitis Perforated: # events related to MRZ: 0
  Asthenia: # events related to MRZ: 0
  Ataxia: # events related to MRZ: 10
  Confusional State: # events related to MRZ: 8
  Constipation: # events related to MRZ: 5
  Convulsion: # events related to MRZ: 0
  Delusion: # events related to MRZ: 1
  Diarrhoea: # events related to MRZ: 12
  Dizziness: # events related to MRZ: 13
  Dysarthria: # events related to MRZ: 1
  Dysphagia: # events related to MRZ: 0
  Dysphonia: # events related to MRZ: 0
  Dyspnoea: # events related to MRZ: 0
  Ear Infection: # events related to MRZ: 0
  Embolism: # events related to MRZ: 0
  Epistaxis: # events related to MRZ: 0
  Fatigue: # events related to MRZ: 1
  Haemorrhage Intracranial: # events related to MRZ: 0
  Hallucination: # events related to MRZ: 16
  Headache: # events related to MRZ: 6
  Hemiparesis: # events related to MRZ: 0
  Hyperglycemia: # events related to MRZ: 0
  Hypertension: # events related to MRZ: 0
  Hypokalemia: # events related to MRZ: 1
  Hypotension: # events related to MRZ: 0
  Insomnia: # events related to MRZ: 1
  Lymphocyte Count Decreased: # events related to MRZ: 0
  Muscular Weakness: # events related to MRZ: 3
  Nausea: # events related to MRZ: 36
  Pyramidal Tract Syndrome: # events related to MRZ: 0
  Vomiting: # events related to MRZ: 16
[1]
  Anaemia: # patients, AE related to labelled agent (BEV, MRZ, Both): 6
  Anxiety: # patients, AE related to labelled agent (BEV, MRZ, Both): 0
  Aphasia: # patients, AE related to labelled agent (BEV, MRZ, Both): 0
  Appendicitis Perforated: # patients, AE related to labelled agent (BEV, MRZ, Both): 0
  Asthenia: # patients, AE related to labelled agent (BEV, MRZ, Both): 0
  Ataxia: # patients, AE related to labelled agent (BEV, MRZ, Both): 6
  Confusional State: # patients, AE related to labelled agent (BEV, MRZ, Both): 6
  Constipation: # patients, AE related to labelled agent (BEV, MRZ, Both): 4
  Convulsion: # patients, AE related to labelled agent (BEV, MRZ, Both): 0
  Delusion: # patients, AE related to labelled agent (BEV, MRZ, Both): 1
  Depressed Level of Consciousness: # patients, AE related to labelled agent (BEV, MRZ, Both): 0
  Diarrhoea: # patients, AE related to labelled agent (BEV, MRZ, Both): 9
  Dizziness: # patients, AE related to labelled agent (BEV, MRZ, Both): 8
  Dysarthria: # patients, AE related to labelled agent (BEV, MRZ, Both): 1
  Dysphagia: # patients, AE related to labelled agent (BEV, MRZ, Both): 0
  Dysphonia: # patients, AE related to labelled agent (BEV, MRZ, Both): 0
  Dyspnoea: # patients, AE related to labelled agent (BEV, MRZ, Both): 0
  Ear Infection: # patients, AE related to labelled agent (BEV, MRZ, Both): 0
  Embolism: # patients, AE related to labelled agent (BEV, MRZ, Both): 0
  Epistaxis: # patients, AE related to labelled agent (BEV, MRZ, Both): 0
  Falls: # patients, AE related to labelled agent (BEV, MRZ, Both): 3
  Fatigue: # patients, AE related to labelled agent (BEV, MRZ, Both): 1
  Fracture of Femur: # patients, AE related to labelled agent (BEV, MRZ, Both): 0
  Haemorrhage Intracranial: # patients, AE related to labelled agent (BEV, MRZ, Both): 0
  Hallucination: # patients, AE related to labelled agent (BEV, MRZ, Both): 11
  Headache: # patients, AE related to labelled agent (BEV, MRZ, Both): 5
  Hemiparesis: # patients, AE related to labelled agent (BEV, MRZ, Both): 0
  Hyperglycemia: # patients, AE related to labelled agent (BEV, MRZ, Both): 0
  Hypertension: # patients, AE related to labelled agent (BEV, MRZ, Both): 0
  Hypokalemia: # patients, AE related to labelled agent (BEV, MRZ, Both): 0
  Hyponatremia: # patients, AE related to labelled agent (BEV, MRZ, Both): 1
  Hypotension: # patients, AE related to labelled agent (BEV, MRZ, Both): 0
  Infusion Site Pain: # patients, AE related to labelled agent (BEV, MRZ, Both): 6
  Insomnia: # patients, AE related to labelled agent (BEV, MRZ, Both): 1
  Lymphocyte Count Decreased: # patients, AE related to labelled agent (BEV, MRZ, Both): 0
  Muscular Weakness: # patients, AE related to labelled agent (BEV, MRZ, Both): 2
  Nausea: # patients, AE related to labelled agent (BEV, MRZ, Both): 19
  Optic Nerve Disorder: # patients, AE related to labelled agent (BEV, MRZ, Both): 0
  Pyramidal Tract Syndrome: # patients, AE related to labelled agent (BEV, MRZ, Both): 0
  Tumor Metastasis: # patients, AE related to labelled agent (BEV, MRZ, Both): 0
  Vision Blurred: # patients, AE related to labelled agent (BEV, MRZ, Both): 3
  Vomiting: # patients, AE related to labelled agent (BEV, MRZ, Both): 12
In combination with BEV and as monotherapy
  tolerability: generally well tolerated
